Data: patent US9676760B2, “Fused heterocyclic compounds as ion channel modulators” (Gilead Sciences, Inc., priority 2011, dated 2017)

Assays:
[1] = target: T1, wild-type human cardiac sodium channel, hNav1.5 (Homo sapiens, UniProt Q14524); experiment: Late INa screening assay (QPatch whole cell patch clamp, HEK293); format: cell-based
Outline: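 HEK293 stably expressing hNav1.5 without beta subunits, recorded at 23-25° C. Late current was induced by 10 μM tefluthrin. Cells were depolarized from −120 mV to −20 mV for 250 ms at 0.1 Hz. Compounds were tested at 1 μM in extracellular solution, with baseline taken in 0Na-ECF; output is percent block of late INa.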

[2] = target: T2, hNav 1.2 sodium channel isoform (Homo sapiens, UniProt Q99250); experiment: hNav1.2 whole-cell voltage-clamp assay; format: cell-based; conditions: use-dependent block, 10 Hz, read-out: NAV1.2* UDB-10HZ
T2 construct: expressed in transfected cells
T2 sequence (Q99250 whole entry, canonical isoform): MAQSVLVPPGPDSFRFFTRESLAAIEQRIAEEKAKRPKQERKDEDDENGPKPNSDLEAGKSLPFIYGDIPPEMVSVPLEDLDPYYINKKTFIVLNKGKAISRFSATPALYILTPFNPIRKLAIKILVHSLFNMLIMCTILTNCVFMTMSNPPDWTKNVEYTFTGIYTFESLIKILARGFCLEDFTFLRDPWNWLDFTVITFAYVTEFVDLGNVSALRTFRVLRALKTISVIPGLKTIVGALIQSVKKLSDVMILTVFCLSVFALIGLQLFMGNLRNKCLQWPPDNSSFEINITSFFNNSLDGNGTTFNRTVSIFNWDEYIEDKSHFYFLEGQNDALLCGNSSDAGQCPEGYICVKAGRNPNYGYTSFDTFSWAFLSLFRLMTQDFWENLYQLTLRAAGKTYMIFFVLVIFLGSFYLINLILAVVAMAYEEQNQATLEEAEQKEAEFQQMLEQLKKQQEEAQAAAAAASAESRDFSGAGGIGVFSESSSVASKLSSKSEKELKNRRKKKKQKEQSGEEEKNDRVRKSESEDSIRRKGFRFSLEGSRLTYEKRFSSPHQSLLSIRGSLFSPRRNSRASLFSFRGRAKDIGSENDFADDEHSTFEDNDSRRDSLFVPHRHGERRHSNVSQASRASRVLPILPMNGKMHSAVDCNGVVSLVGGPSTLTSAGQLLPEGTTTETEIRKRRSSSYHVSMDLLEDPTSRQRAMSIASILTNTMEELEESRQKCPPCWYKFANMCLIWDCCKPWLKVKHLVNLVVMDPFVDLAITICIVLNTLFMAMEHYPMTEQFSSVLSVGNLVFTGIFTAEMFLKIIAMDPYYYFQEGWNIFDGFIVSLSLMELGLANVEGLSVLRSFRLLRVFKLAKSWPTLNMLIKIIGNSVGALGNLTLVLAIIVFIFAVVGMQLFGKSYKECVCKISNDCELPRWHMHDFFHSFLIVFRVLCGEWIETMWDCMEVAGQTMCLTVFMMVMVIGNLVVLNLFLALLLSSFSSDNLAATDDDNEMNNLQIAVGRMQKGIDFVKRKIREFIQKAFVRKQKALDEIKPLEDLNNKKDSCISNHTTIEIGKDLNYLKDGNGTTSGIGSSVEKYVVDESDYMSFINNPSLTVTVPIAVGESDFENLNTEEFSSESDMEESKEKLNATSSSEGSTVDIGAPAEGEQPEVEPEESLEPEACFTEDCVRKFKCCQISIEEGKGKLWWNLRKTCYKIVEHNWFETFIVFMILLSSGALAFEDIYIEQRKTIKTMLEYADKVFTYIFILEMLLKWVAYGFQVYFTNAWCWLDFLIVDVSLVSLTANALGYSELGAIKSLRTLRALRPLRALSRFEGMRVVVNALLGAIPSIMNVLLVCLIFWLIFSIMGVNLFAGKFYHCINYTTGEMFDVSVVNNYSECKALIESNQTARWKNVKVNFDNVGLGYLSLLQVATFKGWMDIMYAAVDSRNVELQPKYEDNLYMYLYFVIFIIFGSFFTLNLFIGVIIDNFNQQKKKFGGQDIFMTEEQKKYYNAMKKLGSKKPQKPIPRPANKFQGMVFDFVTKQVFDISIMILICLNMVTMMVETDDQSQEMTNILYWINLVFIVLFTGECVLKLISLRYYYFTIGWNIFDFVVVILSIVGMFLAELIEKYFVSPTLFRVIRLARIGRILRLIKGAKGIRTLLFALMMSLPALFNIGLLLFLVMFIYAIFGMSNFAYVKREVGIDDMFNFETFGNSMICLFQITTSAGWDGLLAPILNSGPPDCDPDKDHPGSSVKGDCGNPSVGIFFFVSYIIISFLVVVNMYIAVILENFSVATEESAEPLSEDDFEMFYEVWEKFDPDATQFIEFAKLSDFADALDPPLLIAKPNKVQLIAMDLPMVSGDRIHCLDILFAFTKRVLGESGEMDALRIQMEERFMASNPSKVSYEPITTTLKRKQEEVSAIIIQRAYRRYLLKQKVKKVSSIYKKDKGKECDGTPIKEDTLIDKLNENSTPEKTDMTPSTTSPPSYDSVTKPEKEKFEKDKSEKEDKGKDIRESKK
Method: Wild-type (WT) cDNA stably transfected in Chinese hamster ovary (CHO) cells is used to record INa. Unless otherwise noted, all reagents are purchased from Sigma-Aldrich (St Louis, Mo., U.S.A.).
Whole-cell voltage-clamp recordings are used to measure the biophysical properties of WT. […] Cells are allowed to stabilize for 10 min after establishment of the whole-cell configuration before current is measured. Series resistance is compensated 90% to assure that the command potential is reached within microseconds with a voltage error<2 mV. Leak currents are subtracted by using an online P/4 procedure and all currents are low-pass Bessel filtered at 5 kHz and digitized at 50 kHz.
For clarity, representative ramp currents are low pass filtered off-line at 50 Hz. Specific voltage-clamp protocols assessing channel activation, fast inactivation and availability during repetitive stimulation are used. Results are presented as mean±SEM.
Tonic block of peak current is measured using a step to −10 mV (20 ms) from a holding potential of −120 mV (0.2 Hz). Use-dependent block of peak current is measured during pulse number 300 of a pulse train (−10 mV, 5 ms, 300 pulses, 10 Hz or 25 Hz) from a holding potential of −120 mV. Two sequential pulse train stimulations are averaged to obtain mean current traces for each recording condition, which are then used for offline subtraction and analysis.
For use-dependent studies, cells are stimulated with depolarizing pulse trains (−10 mV, 5 ms, 300 pulses, 10 and 25 Hz) from a holding potential of −120 mV. Currents are then normalized to the peak current recorded in response to the first pulse in each frequency train. For tonic block studies, peak current is evaluated in response to a 20 ms depolarization to −10 mV (0.2 Hz). […] Results are presented as mean±SEM.
A stock solution of 10 mM compound of Formula I is prepared in 0.1 M HCl or DMSO. […] The final DMSO concentration was kept at 0.1% in all solutions. Direct application of the perfusion solution to the clamped cell is achieved using the Perfusion Pencil system (Automate, Berkeley, Calif.). Direct cell perfusion is driven by gravity at a flow rate of 350 μL/min using a 250 micron tip. This system sequesters the clamped cell within a perfusion stream and enables complete solution exchange within 1 second. The clamped cell is perfused continuously starting immediately after establishing the whole-cell configuration. Control currents are measured during control solution perfusion.
Solutions are perfused for three minutes prior to current recordings to allow equilibrium (tonic) drug block. Tonic block of peak currents is measured from this steady-state condition. Three sequential current traces are averaged to obtain a mean current for each recording. The mean current traces are utilized for offline analysis. Use-dependent block of peak current is measured during pulse number 300 of the pulse train, (−10 mV, 5 ms, 300 pulses, 10 Hz) from a holding potential of −120 mV.

[3] = target: T3, hNav 1.1 sodium channel isoform (Homo sapiens, UniProt P35498); experiment: hNav1.1 whole-cell voltage-clamp assay; format: cell-based; conditions: % Inhibition at 1 uM; use-dependent block, 10 Hz; read-out: NAV1.1* UDB-10HZ
T3 construct: expressed in transfected cells; host or cells: HEK293, transient transfection (Qiagen Superfect)

[4] = target: T1, wild-type human cardiac sodium channel, hNav1.5; experiment: Peak INa screening assay (tonic and use-dependent block); format: cell-based; conditions: compound at 1 μM
Outline: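 Whole-cell automated patch clamp (QPatch) at 23–25°C on HEK293 cells stably expressing hNav1.5 alpha subunit only, with CsF/CsCl pipette solution, pH 7.4. Compound at 1 μM in extracellular solution; bath Na+ could be cut to 20 mM with a nonpermeant cation. Tonic block measured at 0.1 Hz, use-dependent block at 3 Hz.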

hERG potassium channel = hERG potassium channel (Homo sapiens, UniProt Q12809); experiment: hERG screening assay (PatchXpress, CHO cells); format: cell-based; parameters: hERG: unit not given here
Sequence of hERG potassium channel (Q12809 whole entry): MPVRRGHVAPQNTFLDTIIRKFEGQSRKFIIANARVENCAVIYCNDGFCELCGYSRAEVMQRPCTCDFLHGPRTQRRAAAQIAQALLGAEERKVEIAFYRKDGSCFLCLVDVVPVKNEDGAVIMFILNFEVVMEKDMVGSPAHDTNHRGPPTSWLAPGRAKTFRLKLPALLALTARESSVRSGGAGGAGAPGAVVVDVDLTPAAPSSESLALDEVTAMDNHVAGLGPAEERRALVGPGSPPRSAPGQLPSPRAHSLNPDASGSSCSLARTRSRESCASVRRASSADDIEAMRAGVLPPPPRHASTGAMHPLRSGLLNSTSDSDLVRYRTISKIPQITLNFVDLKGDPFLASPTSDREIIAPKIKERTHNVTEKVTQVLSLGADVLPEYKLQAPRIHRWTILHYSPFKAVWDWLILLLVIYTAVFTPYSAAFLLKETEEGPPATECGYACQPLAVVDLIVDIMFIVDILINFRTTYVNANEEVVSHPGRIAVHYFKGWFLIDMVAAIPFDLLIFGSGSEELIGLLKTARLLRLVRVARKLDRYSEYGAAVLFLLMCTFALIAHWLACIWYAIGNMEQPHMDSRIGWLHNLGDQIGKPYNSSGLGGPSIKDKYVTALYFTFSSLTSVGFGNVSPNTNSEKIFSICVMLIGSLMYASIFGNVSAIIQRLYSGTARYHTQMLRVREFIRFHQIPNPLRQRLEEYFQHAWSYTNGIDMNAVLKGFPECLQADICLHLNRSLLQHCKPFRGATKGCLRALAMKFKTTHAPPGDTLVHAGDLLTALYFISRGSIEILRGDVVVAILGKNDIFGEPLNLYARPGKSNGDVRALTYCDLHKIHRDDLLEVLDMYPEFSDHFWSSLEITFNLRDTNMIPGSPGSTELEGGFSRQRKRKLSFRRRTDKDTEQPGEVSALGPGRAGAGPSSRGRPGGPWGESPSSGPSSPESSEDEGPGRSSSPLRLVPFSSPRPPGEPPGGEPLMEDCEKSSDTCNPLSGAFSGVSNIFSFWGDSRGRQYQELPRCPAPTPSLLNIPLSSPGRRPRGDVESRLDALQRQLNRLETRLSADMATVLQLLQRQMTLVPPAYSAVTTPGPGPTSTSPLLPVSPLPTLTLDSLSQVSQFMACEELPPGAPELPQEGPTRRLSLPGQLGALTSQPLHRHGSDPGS
Method: Compounds were also tested for their effect to block the hERG K^+ channel.
Compounds were screened to test their activity in blocking the hERG potassium channel at AVIVA Biosciences (San Deigo, Calif., USA). The hERG channel is heterologously expressed in a CHO (Chinese Hamster Ovary) cell line. Cells were maintained with standard tissue culture procedures and stable channel expression was maintained with 500 μg/mL G418 in the culture medium. Cells were harvested for testing on the PatchXpress 7000A automated patch clamp with Accumax (Innovative Cell Technologies, San Diego, Calif.) to isolate single cells.
The following solutions were used for electrophysiological recordings. The external solution contained: 2 mM CaCl2; 2 mM MgCl2; 4 mM KCl; 150 mM NaCl; 10 mM Glucose; 10 mM HEPES (pH 7.4 with 1M NaOH; osmolarity, ˜310 mOsm).
hERG channels were activated when the voltage was first stepped to −50 mV for 300 ms from the −80 mV holding potential and then stepped to +20 mV for 5 seconds. At +20 mV the channels open and then largely inactivate, so the currents are relatively small. Upon returning to −50 mV from +20 mV, hERG currents transiently become much larger as inactivation is rapidly removed and then the channel closes. The first step to −50 mV for 300 ms was used as a baseline for measuring the peak amplitude during the step to −50 mV after channel activation. The peak tail current at −50 mV was measured both under control conditions and after addition of compound, each cell serving as its own control.
All compounds were prepared as 10 mM DMSO stocks in glass vials. Stock solutions were mixed by vigorous vortexing and sonication for about 2 minutes at room temperature. For testing, compounds were diluted in glass vials using an intermediate dilution step in pure DMSO and then further diluted to working concentrations in external solution. Dilutions were prepared no longer than 20 minutes before use.
For the electrophysiological recordings, after achieving the whole-cell configuration, cells were monitored for 90 seconds to assess stability and washed with external solution for 66 seconds. The voltage protocol described above was then applied to the cells every 12 seconds and throughout the whole procedure. Only cells with stable recording parameters and meeting specified health criteria were allowed to enter the compound addition procedure.
External solution containing 0.1% DMSO (vehicle) was applied to the cells first to establish the control peak current amplitude. After allowing the current to stabilize for 3 to 5 minutes, 1 μM and then 10 μM test compounds were applied. Each compound concentration was added 4 times and cells were kept in test solution until the effect of the compound reached steady state or for a maximum of 12 minutes. […] Washout in the external solution compartment was performed until the recovery of the current reached steady state.

[5] = tested on: Female New Zealand rabbits; experiment: Ischemia-induced ST segment elevation in anesthetized rabbits; format: in vivo, rabbit
Method: This study was undertaken to determine the anti-ischemic effects of compounds of the present disclosure in an in vivo rabbit model.
Female New Zealand rabbits (3.0-4.0 kg) were purchased from Western Oregon Rabbitry. Animals were housed on a 12-h light and dark cycle and received standard laboratory chow and water. All experiments were performed in accordance with the Guide for the Care and Use of Laboratory Animals published by The National Research Council and with the experimental protocol approved by the Institutional Animal Care Committee of Gilead Sciences, Inc.
Rabbits were anesthetized with ketamine (35 mg/kg) and xylazine (5 mg/kg) intramuscular injection (im). A tracheotomy was performed and the trachea was intubated with an endotracheal tube. The animal was ventilated with room air supplemented with oxygen using a pressure control animal ventilator (Kent Scientific Corp., Torrington, Conn.) at a respiratory rate of 40 strokes/min and peak inspiration pressure of 10 mmH2O, which was adjusted to keep blood gases and pH within the physiological range (iSTAT clinic analyzer, Heska Corp.; Waukesha, Wis.). The left femoral artery was cannulated for the measurement of blood pressure (BP). Blood samples were also withdrawn from femoral artery. The right external jugular vein was cannulated for drug/vehicle administration. Needle electrodes were inserted subcutaneously into the limbs for recording of the surface electrocardiogram (ECG). The heart was exposed via an incision in the 4th intercostal space (4th and/or 5th ribs were cut for a clear surgical vision). The chest was opened and a pericardial cradle was formed using 4 retractors. A coronary artery occluder, comprised of a snare made of 5 cm PE-10 tubing with a 6-0 Prolene polypropylene suture in it, was placed loosely around the left anterior descending artery (LAD) at its origin. Two unipolar electrodes, made with teflon coated silver wire attached to a small patch of filter paper, were attached on the surface of the ischemic and normal regions of the left ventricle to record epicardial electrocardiogram. Reference electrodes were placed in the open incision of the neck. The body temperature of the animal was monitored via a rectal thermometer and maintained at 37-40° C. by adjusting the surface temperature of the surgical table. Regional ischemia (15 min) was induced by ligating the LAD followed by 15 min of reperfusion caused by releasing the ligation. The heart was excised at the end of the experiment and the LAD was re-ligated. The ischemic area was visualized by perfusing the heart with 1% Evans blue in saline and calculated as a percentage of total ventricular weight. Rabbits with ischemic area less than 10% or larger than 25% were excluded from the analysis. Animals were randomly assigned to vehicle and test compound groups. Test compounds was dissolved in 5% NMP, 30% PG, 45% PEG 400 and 20% de-ionized water (dH2O). Test compound was given as an iv bolus at 0.1, 0.2 and 0.4 mg/kg. After 30 min of dosing, the heart was subjected to 15 min of ischemia followed by 15 min of reperfusion.

[6] = HEK293, % Inhibition at 1 uM, read-out: Late INa*
[7] = HEK293, percent block of late INa, compound at 1 μM, 10 μM Tefluthrin, read-out: Late INa 1 μM
[8] = tonic block of peak INa, 0.1 Hz, read-out: Peak TB 1 μM
[9] = use-dependent block of peak INa, 3 Hz, read-out: Peak UDB 1 μM

T1 sequence (Q14524 whole entry): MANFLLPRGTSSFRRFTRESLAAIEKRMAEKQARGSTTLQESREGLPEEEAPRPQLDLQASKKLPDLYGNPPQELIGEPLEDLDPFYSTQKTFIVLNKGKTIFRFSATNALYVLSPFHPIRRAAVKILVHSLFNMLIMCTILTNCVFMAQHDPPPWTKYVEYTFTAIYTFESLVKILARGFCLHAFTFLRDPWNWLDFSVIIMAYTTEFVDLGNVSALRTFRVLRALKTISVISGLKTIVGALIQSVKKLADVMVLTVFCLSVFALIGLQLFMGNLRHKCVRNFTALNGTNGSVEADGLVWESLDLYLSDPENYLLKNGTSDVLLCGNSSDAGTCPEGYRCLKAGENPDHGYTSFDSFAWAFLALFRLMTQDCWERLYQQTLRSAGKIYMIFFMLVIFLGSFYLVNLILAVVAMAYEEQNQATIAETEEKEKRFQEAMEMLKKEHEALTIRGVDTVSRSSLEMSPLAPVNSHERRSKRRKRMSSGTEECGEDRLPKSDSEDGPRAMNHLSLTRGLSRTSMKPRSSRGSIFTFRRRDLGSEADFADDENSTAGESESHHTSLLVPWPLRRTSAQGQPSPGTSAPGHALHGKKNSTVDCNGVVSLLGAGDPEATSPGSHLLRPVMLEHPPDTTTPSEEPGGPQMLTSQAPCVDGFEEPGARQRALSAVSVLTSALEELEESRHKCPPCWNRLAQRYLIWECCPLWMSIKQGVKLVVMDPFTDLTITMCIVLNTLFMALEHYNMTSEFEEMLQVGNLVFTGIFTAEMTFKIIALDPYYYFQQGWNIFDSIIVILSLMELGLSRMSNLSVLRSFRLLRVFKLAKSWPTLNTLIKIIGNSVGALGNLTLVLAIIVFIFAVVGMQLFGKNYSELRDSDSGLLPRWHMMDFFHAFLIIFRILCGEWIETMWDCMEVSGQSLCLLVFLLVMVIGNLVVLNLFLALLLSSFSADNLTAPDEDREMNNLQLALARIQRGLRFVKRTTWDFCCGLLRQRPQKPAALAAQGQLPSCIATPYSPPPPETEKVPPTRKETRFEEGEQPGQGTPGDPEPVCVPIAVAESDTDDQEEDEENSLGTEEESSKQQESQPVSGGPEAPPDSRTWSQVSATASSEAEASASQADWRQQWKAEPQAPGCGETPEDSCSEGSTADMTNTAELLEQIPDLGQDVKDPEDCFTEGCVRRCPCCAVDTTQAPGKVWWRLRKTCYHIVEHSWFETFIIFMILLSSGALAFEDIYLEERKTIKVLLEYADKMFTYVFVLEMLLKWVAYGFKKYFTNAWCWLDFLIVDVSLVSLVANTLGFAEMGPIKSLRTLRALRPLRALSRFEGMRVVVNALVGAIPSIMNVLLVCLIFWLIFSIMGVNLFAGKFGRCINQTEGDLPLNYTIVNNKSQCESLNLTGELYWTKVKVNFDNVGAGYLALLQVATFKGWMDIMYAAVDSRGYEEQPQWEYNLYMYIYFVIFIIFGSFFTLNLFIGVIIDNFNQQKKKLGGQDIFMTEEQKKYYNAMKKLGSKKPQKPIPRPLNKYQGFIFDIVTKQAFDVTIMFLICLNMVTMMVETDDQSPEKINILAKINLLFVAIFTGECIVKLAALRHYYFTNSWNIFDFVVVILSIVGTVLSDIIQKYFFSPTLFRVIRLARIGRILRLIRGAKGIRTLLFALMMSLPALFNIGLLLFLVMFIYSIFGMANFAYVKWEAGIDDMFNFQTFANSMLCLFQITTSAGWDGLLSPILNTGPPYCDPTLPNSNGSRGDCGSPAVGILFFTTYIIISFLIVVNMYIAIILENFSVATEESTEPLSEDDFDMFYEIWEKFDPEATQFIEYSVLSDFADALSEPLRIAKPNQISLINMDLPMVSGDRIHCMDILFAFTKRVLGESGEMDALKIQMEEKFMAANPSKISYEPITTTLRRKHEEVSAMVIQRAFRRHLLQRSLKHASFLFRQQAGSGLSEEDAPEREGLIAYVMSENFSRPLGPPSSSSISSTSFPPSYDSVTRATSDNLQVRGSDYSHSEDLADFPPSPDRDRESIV

Row | Compound | inhibition at 1 µM [1, 6] [%] | inhibition at 1 µM [1, 7] [%] | inhibition at 1 µM [2] [%] | inhibition at 1 µM [3] [%] | inhibition at 1 µM [4, 8] [%] | inhibition at 1 µM [4, 9] [%] | hERG (hERG potassium channel) | area under curve (AUC) for the ST segment height reduced (vs. control) ([5]; 0.28 μM plasma concentration, iv bolus, 15 min ischemia) [%] | effect on blood pressure (BP), heart rate (HR) and ECG intervals prior to the ischemia ([5]; at the plasma concentration levels studied) | ischemia-induced ST elevation ([5]; iv bolus 30 min before 15 min ischemia)
1 | O=C1c2cc(-c3ccc(OC(F)(F)F)cc3)ccc2OCCN1CC1CC1 [II-10, 4-(cyclopropylmethyl)-7-(4-(trifluoromethoxy)phenyl)-3,4-dihydrobenzo[f][1,4]oxazepin-5(2H)-one] | 43 | 43 | 9 | -4 | 9 | 2 |  |  |  | 
2 | N#Cc1cccc(CN2CCOc3ccc(-c4ccc(OC(F)(F)F)cc4)cc3C2=O)n1 [II-14, 6-((5-oxo-7-(4-(trifluoromethoxy)phenyl)-2,3-dihydrobenzo[f][1,4]oxazepin-4(5H)-yl)methyl)picolinonitrile] | 47 | 47 | 19 | 16 | 7 | 6 |  |  |  | 
3 | Cc1cccc(CN2CCOc3ccc(-c4ccc(OC(F)(F)F)cc4)cc3C2=O)n1 [II-17, 4-((6-methylpyridin-2-yl)methyl)-7-(4-(trifluoromethoxy)phenyl)-3,4-dihydrobenzo[f][1,4]oxazepin-5(2H)-one] | 59 | 59 |  |  | 47 | 46 | <10 |  |  | 
4 | O=C1c2cc(-c3ccc(C(F)(F)F)cc3)ccc2OCCN1Cc1ncccn1 [II-61, 4-(pyrimidin-2-ylmethyl)-7-(4-(trifluoromethyl)phenyl)-3,4-dihydrobenzo[f][1,4]oxazepin-5(2H)-one] |  |  |  |  |  |  | <10 | 38 | no significant effect | dose-dependently prevented
5 | Cc1cccnc1CN1CCOc2ccc(-c3ccc(OC(F)(F)F)cc3)cc2C1=O [II-75, 4-((3-methylpyridin-2-yl)methyl)-7-(4-(trifluoromethoxy)phenyl)-3,4-dihydrobenzo[f][1,4]oxazepin-5(2H)-one] | 68 | 68 | 52 | 35 | 45 | 59 |  |  |  | 
6 | CCc1ccc(-c2ccc3c(c2)C(=O)N(Cc2ncccn2)CCO3)cc1 [II-91, 7-(4-ethylphenyl)-4-(pyrimidin-2-ylmethyl)-3,4-dihydrobenzo[f][1,4]oxazepin-5(2H)-one] | 54 | 54 | -3 | -9 | 8 | 11 |  |  |  | 
7 | Cc1ccnc(CN2CCOc3ccc(-c4ccc(OC(F)(F)F)cc4)cc3C2=O)n1 [II-138, 4-((4-methylpyrimidin-2-yl)methyl)-7-(4-(trifluoromethoxy)phenyl)-3,4-dihydrobenzo[f][1,4]oxazepin-5(2H)-one] | 47 | 47 | 40 | 21 | 16 | 23 |  |  |  | 
8 | O=C1c2cc(-c3ccc(OC(F)(F)F)cc3)ncc2OCCN1Cc1ccccc1 [XII-1, 4-benzyl-7-(4-(trifluoromethoxy)phenyl)-3,4-dihydropyrido[4,3-f][1,4]oxazepin-5(2H)-one] | 53 | 53 | -4 | -1 | 25 | 21 |  |  |  | 
